Test results reported in PubChem BioAssay (NCI).
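Briefly, cells in 96-well plates were exposed to five compound concentrations for 48 h, and endpoints were estimated by linear interpolation. TGI: total growth inhibition.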

How the values were obtained:
Experiment in all cases: NCI anticancer screen, dose series, 48 h
M19-MEL melanoma = tested on: M19-MEL melanoma
HOP-18 NSCLC = tested on: HOP-18 NSCLC
SNB-78 CNS = tested on: SNB-78 CNS
DMS 273 small cell lung = tested on: DMS 273 small cell lung
KM20L2 colon = tested on: KM20L2 colon
DMS 114 small cell lung = tested on: DMS 114 small cell lung

Measured: TGI

COc1ccc(/C=N/n2cnc3c(c2=O)SC(=C(C#N)C#N)N3c2ccccc2)cc1
> 100 µM: M19-MEL melanoma | HOP-18 NSCLC

Nc1nc(SCc2ccccc2Cl)c2[nH]cnc2n1
not listed: HOP-18 NSCLC
> 100 µM: all other assays above
